Assay results published in US5541161A, “Stabilized sulfonate, sulfate, phosphonate and phosphate derivatives of hirudin” (Merrell Pharmaceuticals Inc., priority 1993, dated 1996).
Read-outs that look alike come from different tables or passages of the source. Numbered stars: 1 amine (or outer) side, 2 acyl side, 3 side chain; on linkers, the order of the positions; unused ones are H or OH. Suc = O=C(CCC(=O)[*:2])[*:1]; Pnh(SO3) = not defined here

Molecular target: thrombin (Homo sapiens, UniProt P00734)
Test: Fibrin-Clot Assay
Format: biochemical
[1] = read-out: IC50 Fibrin-Clot Assay
[2] = read-out: IC50 Fibrin-Clot Assay (class symbol)

Row | Molecule | IC50 [1] [µM] | IC50 [2] [µM]
1 | Suc-Tyr-Glu-Pro-Ile-Pro-Glu-Glu-Phe(pNHSO3 H)-D-Glu-OH [Example 3] | 0.12 | –
2 | CC[C@H](C)[C@H](NC(=O)[C@@H]1CCCN1C(=O)[C@H](CCC(=O)O)NC(=O)[C@H](Cc1ccc(OS(=O)(=O)O)cc1)NC(=O)CCC(=O)O)C(=O)N1CCC[C@H]1C(=O)N[C@@H](CCC(=O)O)C(=O)N[C@@H](CCC(=O)O)C(=O)N[C@@H](C)C(=O)N[C@@H](Cc1ccc(NS(=O)(=O)O)cc1)C(=O)N[C@H](CCC(=O)O)C(=O)O [Example 2, Suc-TVr(SO3 H)-Glu-Pro-Ile-Pro-Glu-Glu-Ala-Phe(pNHSO3 H)-D-Glu-OH] | 15 | < 25
3 | CC[C@H](C)[C@H](NC(=O)[C@@H]1CCCN1C(=O)[C@H](COS(=O)(=O)O)NC(=O)[C@H](Cc1ccc(O)cc1)NC(=O)CCC(=O)O)C(=O)N1CCC[C@H]1C(=O)N[C@@H](COS(=O)(=O)O)C(=O)N[C@@H](COS(=O)(=O)O)C(=O)N[C@@H](C)C(=O)N[C@@H](CC1CCCCC1)C(=O)N[C@@H](COS(=O)(=O)O)C(=O)O [Example 8, Suc-Tyr-Ser(SO3 H)-Pro-Ile-Pro-Ser(SO3 H)-Ser(SO3 H)-Ala-Cha-Ser(SO3 H)-OH] | 0.21 | < 5
4 | CC[C@H](C)[C@H](NC(=O)[C@@H]1CCCN1C(=O)[C@H](CCC(=O)O)NC(=O)[C@H](Cc1ccc(NS(=O)(=O)O)cc1)NC(=O)CCC(=O)O)C(=O)N1CCC[C@H]1C(=O)N[C@@H](CCC(=O)O)C(=O)N[C@@H](CCC(=O)O)C(=O)N[C@@H](C)C(=O)N[C@@H](CC1CCCCC1)C(=O)N[C@H](CCC(=O)O)C(=O)O [Example 4, Suc-Phe(pNHSO3 H)-Glu-Pro-Ile-Pro-Glu-Glu-Ala-Cha-D-Glu-OH] | 13 | < 25
5 | Suc-Tyr-Pro-Ile-Pro-Glu-Glu-Ala-Pnh(SO3)-D-Glu-OH (Suc-YPIPEEA-{Pnh(SO3)-dE-OH}; reading uncertain; also: printed as Suc-Tyr-Pro-Ile-Pro-Glu-Glu-Ala-Pnh(SO3)-D-Glu-OH) [Example 1] | 2.5 | < 5
6 | Suc-Tyr(SO3 H)-Glu-Pro-Ile-Pro-Glu-Glu-Ala-Cha-D-Glu-OH [Example 5] | 1.7 | < 5
